From ChEMBL document CHEMBL1629519, “2-Hydroxypropyl-β-cyclodextrin strongly improves water solubility and anti-proliferative activity of pyrazolo[3,4-d]pyrimidines Src-Abl dual inhibitors” (Eur J Med Chem, 2010) come the findings set out here.

A short description of series [1]: Lipophilicity, log P of the compound. To be noted: octanol/water. The series is classed as physicochemical.
Series [2] is described as follows: Solubility of the compound in 30 % hydroxypropyl-beta-cyclodextrins solution. Format: physicochemical. To be noted: 30% hydroxypropyl-beta-cyclodextrin solution.
Series [3] can be described thus: Aqueous solubility of the compound in dimethyl sulfoxide. The series is classed as physicochemical. To be noted: aqueous solution with dimethyl sulfoxide.
The subject of another series is SAOS-2. The series can be described thus: Anti proliferative activity against human Saos2 assessed as cell viability at 12.5 to 25 uM after 48 hrs by MTT assay. Format: functional, cell-based. A general note: Tetrazolium assays rely on reduction of a dye to a coloured formazan, in cell work by metabolically active cells.
A further series has as its system HL-60. The series can be described thus: Anti proliferative activity against human HL60 assessed as cell viability at 12.5 to 25 uM after 48 hrs by MTT assay. Format: functional, cell-based.
A further series relates to K562. The series can be described thus: Antiproliferative activity against human K562 cells after 3 days by ATP lite 1 step assay. The series is classed as functional, cell-based. To be noted: K562, 72 h.
Series [4] in a line: Antiproliferative activity against human KU812 cells after 3 days by ATP lite 1 step assay. Format: functional, cell-based. To be noted: KU812, 72 h.

Structures are written as SMILES. Values after ≈ are worked out from the molar mass of the structure shown. Active and inactive are the calls of the source. The calls are words filed in the database; no cut-off is given here.

As a reminder, the logP is a log measure of how a compound divides between an organic and an aqueous phase. A higher logP goes with a more lipophilic compound. Broadly, the solubility is the concentration that dissolves in the medium under given conditions. Regarding `CSc1nc(NCc2ccccc2)c2cnn(CC(Cl)c3ccccc3)c2n1` (configuration not stated), the logP in series [1] was 5.49. For the same molecule, the solubility in series [2] came out at 838 µM (≈ 344 µg/mL); in series [3] it was 0.512 µM (≈ 0.21 µg/mL).

For the molecule `CSc1nc(NCc2cccc(Br)c2)c2cnn(CC(Cl)c3ccccc3)c2n1` (configuration not stated), in series [1], the logP was determined as 6.37. In addition, the solubility in series [2] was 390 µM (≈ 191 µg/mL); in series [3], 0.141 µM (≈ 0.0689 µg/mL).

Take `CSc1nc(NCCc2ccc(Cl)cc2)c2cnn(CC(Cl)c3ccccc3)c2n1` (configuration not stated): the logP in series [1] is 7.41. In addition, the solubility was 612 µM (≈ 281 µg/mL) in series [2] and 0.158 µM (≈ 0.0724 µg/mL) in series [3].

Turning to `CC(O)COC[C@H]1O[C@@H]2O[C@H]3[C@H](O)[C@@H](O)[C@@H](O[C@H]4[C@H](O)[C@@H](O)[C@@H](O[C@H]5[C@H](O)[C@@H](O)[C@@H](O[C@H]6[C@H](O)[C@@H](O)[C@@H](O[C@H]7[C@H](O)[C@@H](O)[C@@H](O[C@H]8[C@H](O)[C@@H](O)[C@@H](O[C@H]1[C@H](O)[C@H]2O)O[C@@H]8COCC(C)O)O[C@@H]7COCC(C)O)O[C@@H]6COCC(C)O)O[C@@H]5COCC(C)O)O[C@@H]4COCC(C)O)O[C@@H]3COCC(C)O` (some centres not stated), the result in the series on SAOS-2 and in the series with HL-60 was inactive.

Usually IC50 stands for the concentration at which inhibition is half-maximal. On to `CSc1nc(NCc2cccc(Cl)c2)c2cnn(CC(Cl)c3ccccc3)c2n1` (configuration not stated), for which the values for the IC50 (in the series on K562; in series [4]) were 7.19 µM and 24.1 µM, respectively. The same molecule registered a logP in series [1] of 6.76. Further, the solubility in series [2] is 314 µM (≈ 140 µg/mL); in series [3] it was 0.295 µM (≈ 0.131 µg/mL).

`CCCSc1nc(NCc2cccc(Cl)c2)c2cnn(CC(Cl)c3ccccc3)c2n1` (configuration not stated) had a logP in series [1] of 7.4. The results for the solubility in series [2] and in series [3] were 910 µM (≈ 430 µg/mL) and 0.107 µM (≈ 0.0506 µg/mL), respectively.

With `CSc1nc(NCCc2ccccc2)c2cnn(CC(Cl)c3ccccc3)c2n1` (configuration not stated), the values for the solubility in series [2] and in series [3] were 947 µM (≈ 402 µg/mL) and 0.166 µM (≈ 0.0704 µg/mL), respectively.

Consider `CSc1nc(NCCc2cccc(F)c2)c2cnn(CC(Cl)c3ccccc3)c2n1` (configuration not stated), for which the log partition coefficient (logP) in series [1] came to 6.44. For the same molecule, the results for the solubility in series [2] and in series [3] were 790 µM (≈ 349 µg/mL) and 0.588 µM (≈ 0.26 µg/mL), respectively.

As to `CSc1nc(NCc2ccccc2F)c2cnn(CC(Cl)c3ccccc3)c2n1` (configuration not stated), the concentration for half-maximal inhibition (IC50) with K562 worked out at 6.11 µM; in series [4], 7.87 µM. This molecule also returned a log partition coefficient (logP) in series [1] of 5.88.
